Measured values published in patent US8592344B2, “Pesticidal compositions comprising 4,5-dihydroxyindan-1-one” (Yissum Research Development Company of The Hebrew …, priority 2009, dated 2013).

Legend:
[1] = test system: citrus rust mite, Phyllocoptruta oleivora; experiment: whole plant or invertebrate; format: in vivo; conditions: recorded 24 h later
Procedure: The CRM population was obtained from Mineola Tangelo (C. paradisi×C. reticulata) fruits at the Tzrifin farm, on the coastal plain of Israel. No acaricides are being used at this farm, making the location a suitable place for our purposes. In the laboratory the pest was reared on young seedlings (6-8 weeks old) of sour orange (Citrus aurantium).
In order to determine the CRM dose response to the toxin, 0.01, 0.02, 0.05, 0.1, 0.2 and 0.4 mg/ml of RPLC-cleaned toxin, dissolved in a two ml volume of ddH2O, was sprayed on the CRM (thirty CRMs/leaf, in four replicates). The infested seedlings were incubated at 25° C., (12L: 12D). Mite mortality rates were recorded 24 h later.

[2] = test system: Agrobacterium tumefaciens (strain ID1); experiment: Antibacterial activity, inhibition haloes of chromatographed fractions; format: cell-based; conditions: RPLC fraction in 10 μl methanol, 24 hours, 28° C.
Procedure: The bacterium was grown overnight in glass tubes containing a 5 ml Lennox Broth (LB, Difco). Fifty μl overnight-grown bacterial suspensions were added to 5 ml of LB containing 0.6% agar, and placed into Petri dishes (55 mm diameter). Each of the eluted chromatographed fractions was dried using a rotor evaporator, dissolved in 10 μl of methanol, pipetted into the Petri dishes and incubated at 28° C. Each dish was checked for inhibition haloes 24 hours later; 10 μl methanol alone was used as a control. This procedure was repeated four times to confirm of the toxicity of the fractions. The RPLC-cleaned fraction that was antagonistic to A. tumefaciens was concurrently assayed against the citrus rust mite (describe below).

**Q.** Which mortality at 10 µg/mL ([1]; 0.01 mg/ml sprayed, control 6%) does the source give for `O=C1CCc2c1ccc(O)c2O` [argovin, 4,5-dihydroxyindan-1-one] here?
**A.** 39%

**Q.** And the mortality at 200 µg/mL ([1]; 0.2 mg/ml sprayed)?
**A.** 100%

**Q.** And the “activity against A. tumefaciens (inhibition halo)” value [2]?
**A.** active
